Data on 37 molecules can be found in patent US7718808B2, “Thiazole derivatives” (Kyowa Hakko Kirin Co., Ltd., priority 2003, dated 2010).

The term melting point denotes the temperature, or range, at which the solid turns liquid. `Cn1cc(C(=O)Nc2nc(-c3ccco3)c(C(=O)c3ccccc3)s2)ccc1=O` [Compound 150, N-[5-Benzoyl-4-(2-furyl)thiazol-2-yl]-1-methyl-2-oxo-1,2-dihydropyridine-5-carboxamide] had a melting point of 220 to 225 °C.

The molecule `O=C(Nc1nc(-c2ccco2)c(C(=O)c2ccccc2)s1)c1ccc(=O)n(Cc2ccncc2)c1` [Compound 152, N-[5-Benzoyl-4-(2-furyl)thiazol-2-yl]-2-oxo-1-(pyridin-4-ylmethyl)-1,2-dihydropyridine-5-carboxamide] returned a melting point of 270 to 275 °C.

`O=C(Nc1nc(-c2ccco2)c(C(=O)c2ccccc2)s1)c1ccnnc1` [Compound 153, N-[5-Benzoyl-4-(2-furyl)thiazol-2-yl]pyridazine-4-carboxamide]: the melting point was in the range of 225 to 248 °C.

Regarding `CC(=O)Nc1nc(-c2ccco2)c(C(=O)c2ccccn2)s1` [Compound 188, N-[4-(2-Furyl)-5-(pyridin-2-ylcarbonyl)thiazol-2-yl]acetamide], the melting point lay within 216 to 217 °C.

Consider `CCCC(=O)Nc1nc(-c2ccco2)c(C(=O)c2ccccn2)s1` [Compound 189, N-[4-(2-Furyl)-5-(pyridin-2-ylcarbonyl)thiazol-2-yl]butanamide], for which the melting point is 148 to 149 °C.

In turn, `CC(C)(C)C(=O)Nc1nc(-c2ccco2)c(C(=O)c2ccccn2)s1` [Compound 190, N-[4-(2-Furyl)-5-(pyridin-2-ylcarbonyl)thiazol-2-yl]-2,2-dimethylpropanamide] gave a melting point of 186 to 187 °C.

In turn, `CC1(C(=O)Nc2nc(-c3ccco3)c(C(=O)c3ccccn3)s2)CC1` [Compound 192, N-[4-(2-Furyl)-5-(pyridin-2-ylcarbonyl)thiazol-2-yl]-1-methylcyclopropanecarboxamide] displayed a melting point of 195 to 196 °C.

`O=C(c1ccccn1)c1sc(NC(=O)C2CCC2)nc1-c1ccco1` [Compound 193, N-[4-(2-Furyl)-5-(pyridin-2-ylcarbonyl)thiazol-2-yl]cyclobutanecarboxamide] returned a melting point of 165 to 170 °C.

`O=C(c1ccccn1)c1sc(NC(=O)C2CCOCC2)nc1-c1ccco1` [Compound 194, N-[4-(2-Furyl)-5-(pyridin-2-ylcarbonyl)thiazol-2-yl]tetrahydropyran-4-carboxamide] displayed a melting point of 234 to 235 °C.

In turn, `O=C(c1ccccn1)c1sc(NC(=O)C2CCN(Cc3cccnc3)CC2)nc1-c1ccco1` [Compound 197, N-[4-(2-Furyl)-5-(pyridin-2-ylcarbonyl)thiazol-2-yl]-1-(pyridin-3-ylmethyl)piperidine-4-carboxamide] had a melting point of 208 to 209 °C.

In turn, `O=C(c1ccccn1)c1sc(NC(=O)C2CCN(Cc3ccncc3)CC2)nc1-c1ccco1` [Compound 198, N-[4-(2-Furyl)-5-(pyridin-2-ylcarbonyl)thiazol-2-yl]-1-(pyridin-4-ylmethyl)piperidine-4-carboxamide] showed a melting point of 240 to 241 °C.

`O=C(Nc1nc(-c2ccco2)c(C(=O)c2ccccn2)s1)c1ccccc1` [Compound 199, N-[4-(2-Furyl)-5-(pyridin-2-ylcarbonyl)thiazol-2-yl]benzamide] gave a melting point of 165 to 171 °C.

`COc1ccccc1C(=O)Nc1nc(-c2ccco2)c(C(=O)c2ccccn2)s1` [Compound 200, N-[4-(2-Furyl)-5-(pyridin-2-ylcarbonyl)thiazol-2-yl]-2-methoxybenzamide]: the melting point is 205 to 208 °C.

In turn, `COc1cccc(C(=O)Nc2nc(-c3ccco3)c(C(=O)c3ccccn3)s2)c1` [Compound 201, N-[4-(2-Furyl)-5-(pyridin-2-ylcarbonyl)thiazol-2-yl]-3-methoxybenzamide] displayed a melting point of 165 to 166 °C.

`COc1ccc(C(=O)Nc2nc(-c3ccco3)c(C(=O)c3ccccn3)s2)cc1` [Compound 202, N-[4-(2-Furyl)-5-(pyridin-2-ylcarbonyl)thiazol-2-yl]-4-methoxybenzamide] displayed a melting point of 187 to 188 °C.

Molecule `COc1ccc(C(=O)Nc2nc(-c3ccco3)c(C(=O)c3ccccn3)s2)cc1OC` [Compound 203, N-[4-(2-Furyl)-5-(pyridin-2-ylcarbonyl)thiazol-2-yl]-3,4-dimethoxybenzamide] gave a melting point of 169 to 170 °C.

For the molecule `COc1cc(C(=O)Nc2nc(-c3ccco3)c(C(=O)c3ccccn3)s2)cc(OC)c1OC` [Compound 204, N-[4-(2-Furyl)-5-(pyridin-2-ylcarbonyl)thiazol-2-yl]-3,4,5-trimethoxybenzamide], the melting point is 172 to 180 °C (dec.).

Turning to `N#Cc1cccc(C(=O)Nc2nc(-c3ccco3)c(C(=O)c3ccccn3)s2)c1` [Compound 205, 3-Cyano-N-[4-(2-furyl)-5-(pyridin-2-ylcarbonyl)thiazol-2-yl]benzamide], the melting point was in the range of 234 to 237 °C.

The molecule `CC(=O)c1cccc(C(=O)Nc2nc(-c3ccco3)c(C(=O)c3ccccn3)s2)c1` [Compound 207, 3-Acetyl-N-[4-(2-furyl)-5-(pyridin-2-ylcarbonyl)thiazol-2-yl]benzamide] returned a melting point of 168 to 169 °C.

As for `CC(=O)c1ccc(C(=O)Nc2nc(-c3ccco3)c(C(=O)c3ccccn3)s2)cc1` [Compound 208, 4-Acetyl-N-[4-(2-furyl)-5-(pyridin-2-ylcarbonyl)thiazol-2-yl]benzamide], the melting point fell in the range of 204 to 206 °C.

Molecule `O=C(Nc1nc(-c2ccco2)c(C(=O)c2ccccn2)s1)c1ccc2c(c1)OCO2` [Compound 209, N-[4-(2-Furyl)-5-(pyridin-2-ylcarbonyl)thiazol-2-yl]-3,4-methylenedioxybenzamide] showed a melting point of 235 to 236 °C.

`O=C(Nc1nc(-c2ccco2)c(C(=O)c2ccccn2)s1)c1ccc2c(c1)OCCO2` [Compound 210, N-[4-(2-Furyl)-5-(pyridin-2-ylcarbonyl)thiazol-2-yl]-1,4-benzodioxane-6-carboxamide] came in with a melting point of 189 to 191 °C.

`O=C(c1ccccn1)c1sc(NC(=O)C2COc3ccccc3O2)nc1-c1ccco1` (stereo not shown) [Compound 211, N-[4-(2-Furyl)-5-(pyridin-2-ylcarbonyl)thiazol-2-yl]-1,4-benzodioxane-2-carboxamide] yielded a melting point of 103 to 104 °C.

As for `Cc1cc(C(=O)Nc2nc(-c3ccco3)c(C(=O)c3ccccn3)s2)ccn1` [Compound 212, N-[4-(2-Furyl)-5-(pyridin-2-ylcarbonyl)thiazol-2-yl]-2-methylpyridine-4-carboxamide], the melting point is 187 to 188 °C.

`O=C(Nc1nc(-c2ccco2)c(C(=O)c2ccccn2)s1)c1ccnc(Cl)c1` [Compound 214, 2-Chloro-N-[4-(2-furyl)-5-(pyridin-2-ylcarbonyl)thiazol-2-yl]pyridine-4-carboxamide] registered a melting point of 219 to 225 °C.

Take `O=C(Nc1nc(-c2ccco2)c(C(=O)c2ccccn2)s1)c1ccncc1Cl` [Compound 215, 3-Chloro-N-[4-(2-furyl)-5-(pyridin-2-ylcarbonyl)thiazol-2-yl]pyridine-4-carboxamide]: the melting point was 206 to 207 °C.

Take `O=C(Nc1nc(-c2ccco2)c(C(=O)c2ccccn2)s1)c1cc(Cl)nc(Cl)c1` [Compound 216, 2,6-Dichloro-N-[4-(2-furyl)-5-(pyridin-2-ylcarbonyl)thiazol-2-yl]pyridine-4-carboxamide]: the melting point was in the range of 254 to 258 °C.

For the molecule `COCCN(C)c1cc(C(=O)Nc2nc(-c3ccco3)c(C(=O)c3ccccn3)s2)ccn1` [Compound 217, N-[4-(2-Furyl)-5-(pyridin-2-ylcarbonyl)thiazol-2-yl]-2-[N-(2-methoxyethyl)-N-methylamino]pyridine-4-carboxamide], the melting point lay within 114 to 117 °C.

`O=C(Nc1nc(-c2ccco2)c(C(=O)c2ccccn2)s1)c1ccnc(N2CCCCC2)c1` [Compound 218, N-[4-(2-Furyl)-5-(pyridin-2-ylcarbonyl)thiazol-2-yl]-2-piperidinopyridine-4-carboxamide]: the melting point is 136 to 141 °C.

With `O=C(Nc1nc(-c2ccco2)c(C(=O)c2ccccn2)s1)c1ccnc(N2CCOCC2)c1` [Compound 219, N-[4-(2-Furyl)-5-(pyridin-2-ylcarbonyl)thiazol-2-yl]-2-morpholinopyridine-4-carboxamide], the melting point lay within 216 to 217 °C.

Take `Cc1ncccc1C(=O)Nc1nc(-c2ccco2)c(C(=O)c2ccccn2)s1` [Compound 221, N-[4-(2-Furyl)-5-(pyridin-2-ylcarbonyl)thiazol-2-yl]-2-methylpyridine-3-carboxamide]: the melting point lay within 186 to 187 °C.

`Cc1ccc(C(=O)Nc2nc(-c3ccco3)c(C(=O)c3ccccn3)s2)cn1` [Compound 222, N-[4-(2-Furyl)-5-(pyridin-2-ylcarbonyl)thiazol-2-yl]-2-methylpyridine-5-carboxamide] yielded a melting point of 210 to 215 °C.

Turning to `Cc1cncc(C(=O)Nc2nc(-c3ccco3)c(C(=O)c3ccccn3)s2)c1` [Compound 223, N-[4-(2-Furyl)-5-(pyridine-2-ylcarbonyl)thiazol-2-yl]-5-methylpyridine-3-carboxamide], the melting point was 245 to 248 °C.

With `COc1ccc(C(=O)Nc2nc(-c3ccco3)c(C(=O)c3ccccn3)s2)c(OC)n1` [Compound 224, N-[4-(2-Furyl)-5-(pyridin-2-ylcarbonyl)thiazol-2-yl]-2,6-dimethoxypyridine-3-carboxamide], the melting point is 201 to 202 °C.

Molecule `O=C(Nc1nc(-c2ccco2)c(C(=O)c2ccccn2)s1)c1cncc(Br)c1` [Compound 226, 5-Bromo-N-[4-(2-furyl)-5-(pyridin-2-ylcarbonyl)thiazol-2-yl]pyridine-3-carboxamide] gave a melting point of 259 to 262 °C.

On to `O=C(Nc1nc(-c2ccco2)c(C(=O)c2ccccn2)s1)c1ccnnc1` [Compound 227, N-[4-(2-Furyl)-5-(pyridin-2-ylcarbonyl)thiazol-2-yl]pyridazine-4-carboxamide], for which the melting point is 270 to 274 °C.

The molecule `O=C(Nc1nc(-c2ccco2)c(C(=O)c2ccccn2)s1)c1cnc(C2CC2)nc1` [Compound 229, 2-Cyclopropyl-N-[4-(2-furyl)-5-(pyridin-2-ylcarbonyl)thiazol-2-yl]pyrimidine-5-carboxamide] displayed a melting point of 150 to 154 °C.
